Source: ChEMBL document CHEMBL1201862, “PubChem BioAssay data set” (2004)
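Results reflect a 48-hour exposure of cells in 96-well plates to compound at five concentrations. At the GI50, growth is halved.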 Activity calls are given as the source filed them. Rule as the data show it: active = GI50 up to about 1.1 µM and inactive = higher.

Legend:
Test in all cases: inhibition of tumour cell growth, NCI panel, 48 h
NCI-H226 = test system: NCI-H226
MOLT-4 = test system: MOLT-4
HL-60 = test system: HL-60
TK-10 = test system: TK-10
M14 = test system: M14
SN12C = test system: SN12C
NCI/ADR-RES = test system: NCI/ADR-RES
UACC-257 = test system: UACC-257
PC-3 = test system: PC-3
OVCAR-8 = test system: OVCAR-8
ACHN = test system: ACHN
KM12 = test system: KM12
HT-29 = test system: HT-29
RPMI-8226 = test system: RPMI-8226
HOP-62 = test system: HOP-62
UO-31 = test system: UO-31
HCT-116 = test system: HCT-116
MDA-N = test system: MDA-N
SR = test system: SR

Measured: GI50

O=C(O)c1cc(O)nc(S)n1
inactive: NCI-H226 > 100 µM | MOLT-4 > 100 µM | HL-60 > 100 µM | TK-10 > 100 µM | M14 > 100 µM | SN12C > 100 µM | NCI/ADR-RES > 100 µM | UACC-257 > 100 µM | PC-3 > 100 µM | OVCAR-8 > 100 µM | ACHN > 100 µM | KM12 > 100 µM | HT-29 > 100 µM | RPMI-8226 > 100 µM | HOP-62 > 100 µM | UO-31 > 100 µM | HCT-116 > 100 µM | MDA-N > 100 µM

O=S(=O)(c1ccccc1)N1CCN(S(=O)(=O)c2ccccc2)c2ccccc21
inactive: NCI-H226 > 100 µM | TK-10 > 100 µM | M14 96.6 µM | SN12C > 100 µM | NCI/ADR-RES 95.7 µM | UACC-257 75.5 µM | PC-3 > 100 µM | OVCAR-8 > 100 µM | ACHN > 100 µM | KM12 > 100 µM | HT-29 93.5 µM | RPMI-8226 > 100 µM | SR > 100 µM | HOP-62 > 100 µM | UO-31 > 100 µM | HCT-116 45.2 µM | MDA-N 89.5 µM

OCCCNc1[nH]cnc2nncc1-2
inactive: NCI-H226 > 100 µM | MOLT-4 > 100 µM | HL-60 > 100 µM | TK-10 > 100 µM | M14 > 100 µM | SN12C > 100 µM | NCI/ADR-RES > 100 µM | UACC-257 > 100 µM | PC-3 > 100 µM | OVCAR-8 > 100 µM | ACHN > 100 µM | KM12 > 100 µM | HT-29 > 100 µM | RPMI-8226 > 100 µM | HOP-62 > 100 µM | UO-31 > 100 µM | HCT-116 > 100 µM | MDA-N > 100 µM

CC(=O)N1CN2C(=O)CCC2c2cc(C)ccc21 (stereo not given)
inactive: NCI-H226 > 100 µM | MOLT-4 > 100 µM | HL-60 > 100 µM | TK-10 > 100 µM | M14 > 100 µM | SN12C > 100 µM | NCI/ADR-RES > 100 µM | UACC-257 > 100 µM | PC-3 > 100 µM | OVCAR-8 > 100 µM | ACHN > 100 µM | KM12 > 100 µM | HT-29 > 100 µM | RPMI-8226 > 100 µM | HOP-62 > 100 µM | UO-31 > 100 µM | HCT-116 > 100 µM | MDA-N > 100 µM

COC(=O)Cc1cccc2c(=O)c(S(=O)(=O)NC(=O)Nc3ccc(Cl)cc3)c(-c3ccccc3)oc12
inactive: NCI-H226 > 100 µM | MOLT-4 17.1 µM | TK-10 > 100 µM | M14 > 100 µM | SN12C 36.6 µM | NCI/ADR-RES > 100 µM | UACC-257 87.5 µM | PC-3 16.3 µM | OVCAR-8 69.3 µM | ACHN 12.2 µM | KM12 34.4 µM | HT-29 74.5 µM | SR 36.9 µM | HOP-62 > 100 µM | UO-31 25.8 µM | HCT-116 33.3 µM | MDA-N > 100 µM

COc1ccc(N2C(=O)C3c4[nH]c5ccccc5c4C4CCC(C(C)C)CC4C3C2=O)cc1 (stereo not given)
inactive: NCI-H226 > 100 µM | MOLT-4 > 100 µM | TK-10 > 100 µM | M14 > 100 µM | SN12C > 100 µM | NCI/ADR-RES > 100 µM | UACC-257 > 100 µM | PC-3 > 100 µM | OVCAR-8 > 100 µM | ACHN > 100 µM | KM12 > 100 µM | HT-29 > 100 µM | RPMI-8226 > 100 µM | SR 40.7 µM | HOP-62 33 µM | UO-31 > 100 µM | HCT-116 > 100 µM | MDA-N > 100 µM

NC(=S)Nc1ccc(S(=O)(=O)Nc2ccc(S(N)(=O)=O)cc2)cc1
inactive: NCI-H226 > 100 µM | MOLT-4 > 100 µM | HL-60 > 100 µM | TK-10 > 100 µM | M14 > 100 µM | SN12C > 100 µM | NCI/ADR-RES > 100 µM | UACC-257 > 100 µM | PC-3 > 100 µM | OVCAR-8 > 100 µM | ACHN > 100 µM | KM12 > 100 µM | HT-29 > 100 µM | RPMI-8226 > 100 µM | HOP-62 > 100 µM | UO-31 > 100 µM | HCT-116 > 100 µM | MDA-N > 100 µM

Cc1c(-c2ccccc2)n[nH]c1NC1(C)C(=O)N(/N=C/c2ccccc2)N=C1c1ccccc1 (stereo not given)
inactive: NCI-H226 > 100 µM | MOLT-4 10.2 µM | HL-60 46.6 µM | TK-10 > 100 µM | M14 > 87.3 µM | SN12C > 19.9 µM | NCI/ADR-RES 43.8 µM | UACC-257 > 100 µM | PC-3 24.9 µM | OVCAR-8 > 100 µM | ACHN 24.7 µM | KM12 38.6 µM | HT-29 > 100 µM | RPMI-8226 5.7 µM | HOP-62 > 100 µM | UO-31 > 100 µM | HCT-116 > 59.2 µM | MDA-N 97.5 µM

C=CC(C)(C)/C(=C\CO[Si](C(C)C)(C(C)C)C(C)C)C(=O)N(C)c1ccccc1I
inactive: MOLT-4 9.79 µM | HL-60 1.73 µM | TK-10 13.4 µM | M14 15.8 µM | SN12C 16.2 µM | NCI/ADR-RES 19.5 µM | UACC-257 13.3 µM | PC-3 2.71 µM | OVCAR-8 14.8 µM | ACHN 13.1 µM | KM12 27.5 µM | HT-29 13.4 µM | RPMI-8226 2.96 µM | SR 6.81 µM | HOP-62 16.3 µM | UO-31 12.8 µM | HCT-116 3.13 µM | MDA-N 16.4 µM

CCc1cccc(C(C)C)c1NC(=O)C(=O)C1C(=O)Nc2ccccc2[S+]1[O-] (stereo not given)
inactive: NCI-H226 > 100 µM | MOLT-4 > 100 µM | TK-10 > 100 µM | M14 > 100 µM | SN12C > 100 µM | NCI/ADR-RES > 100 µM | UACC-257 > 100 µM | PC-3 > 100 µM | OVCAR-8 > 100 µM | ACHN > 100 µM | KM12 > 100 µM | HT-29 > 100 µM | RPMI-8226 > 100 µM | SR > 100 µM | HOP-62 > 100 µM | UO-31 > 100 µM | HCT-116 > 100 µM | MDA-N > 100 µM

CCC12CCCN(Cc3ccccc3)C1c1c([nH]c3ccccc13)C(C(=O)OC)C2 (stereo not given)
inactive: MOLT-4 5.85 µM | HL-60 7.83 µM | TK-10 > 10 µM | M14 > 10 µM | SN12C > 10 µM | NCI/ADR-RES > 10 µM | UACC-257 > 10 µM | PC-3 > 10 µM | OVCAR-8 > 10 µM | ACHN > 10 µM | KM12 > 10 µM | HT-29 6.87 µM | RPMI-8226 > 10 µM | SR 7.64 µM | HOP-62 > 10 µM | HCT-116 4.08 µM | MDA-N > 10 µM
